In ChEMBL document CHEMBL1201862, “PubChem BioAssay data set” (2004):
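These data come from cells grown in 96-well plates and exposed to compound for 48 hours at five concentrations. Abbreviation: GI50, concentration required for 50% inhibition of growth.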 The source made the active and inactive calls. Rule as the data show it: active = GI50 up to about 1.1 µM and inactive = higher.

Assays:
Assay in all cases: NCI tumour cell line growth inhibition, 48 h
[1] = tested on: A549
[2] = tested on: 786-0
[3] = tested on: HCC 2998
[4] = tested on: HOP-92
[5] = tested on: COLO 205
[6] = tested on: SF-539
[7] = tested on: HCT-116
[8] = tested on: SK-OV-3
[9] = tested on: CAKI-1
[10] = tested on: SK-MEL-5
[11] = tested on: SK-MEL-28
[12] = tested on: UO-31
[13] = tested on: ACHN
[14] = tested on: SW-620
[15] = tested on: CCRF-CEM
[16] = tested on: OVCAR-4
[17] = tested on: SK-MEL-2
[18] = tested on: RPMI-8226
[19] = tested on: SF-268

| Structure (SMILES) | GI50 [1] | GI50 [2] | GI50 [3] | GI50 [4] | GI50 [5] | GI50 [6] | GI50 [7] | GI50 [8] | GI50 [9] | GI50 [10] | GI50 [11] | GI50 [12] | GI50 [13] | GI50 [14] | GI50 [15] | GI50 [16] | GI50 [17] | GI50 [18] | GI50 [19] |
| --- | --- | --- | --- | --- | --- | --- | --- | --- | --- | --- | --- | --- | --- | --- | --- | --- | --- | --- | --- |
| c1ccc(C(NCC2CCO2)(c2ccccc2)c2ccccc2)cc1 (stereo not given) | 15.2 µM (inactive) | 20 µM (inactive) | 16.9 µM (inactive) | 13.9 µM (inactive) | 39.1 µM (inactive) | 17.8 µM (inactive) | 21.5 µM (inactive) | 19.7 µM (inactive) | 23.9 µM (inactive) | 25.6 µM (inactive) | 28.6 µM (inactive) | 12.8 µM (inactive) | 15.7 µM (inactive) | 19.3 µM (inactive) | 33.3 µM (inactive) | 16.2 µM (inactive) | 21.1 µM (inactive) | 30.5 µM (inactive) | – |
| O=C(/C=C/c1c(O)ccc2ccccc12)c1ccccc1 | > 100 µM (inactive) | 63.5 µM (inactive) | > 100 µM (inactive) | > 100 µM (inactive) | > 100 µM (inactive) | > 100 µM (inactive) | > 100 µM (inactive) | > 100 µM (inactive) | > 100 µM (inactive) | > 100 µM (inactive) | > 100 µM (inactive) | > 100 µM (inactive) | > 100 µM (inactive) | 22.5 µM (inactive) | 35.6 µM (inactive) | > 100 µM (inactive) | > 100 µM (inactive) | 27 µM (inactive) | > 100 µM (inactive) |
| O=C(O)CCC(=O)N1C/C(=C\c2ccccc2)C(=O)/C(=C/c2ccccc2)C1 | 19.1 µM (inactive) | 2.52 µM (inactive) | 2.17 µM (inactive) | 16.3 µM (inactive) | 3.47 µM (inactive) | 1.82 µM (inactive) | 1.75 µM (inactive) | 12.7 µM (inactive) | 4.71 µM (inactive) | 2.65 µM (inactive) | 1.97 µM (inactive) | 18.6 µM (inactive) | 2.07 µM (inactive) | 1.58 µM (inactive) | 1.03 µM (active) | 2.3 µM (inactive) | 1.82 µM (inactive) | 2.42 µM (inactive) | 2.48 µM (inactive) |
| CCCC(=O)OC[n+]1ccc2c(C)c3[nH]c4ccccc4c3c(C)c2c1 | 0.317 µM (active) | 0.305 µM (active) | 0.611 µM (active) | 1.32 µM (inactive) | 0.705 µM (active) | 0.519 µM (active) | 0.118 µM (active) | 0.547 µM (active) | 1.29 µM (inactive) | 1.54 µM (inactive) | – | 1.87 µM (inactive) | 0.504 µM (active) | 0.215 µM (active) | 1.66 µM (inactive) | 0.706 µM (active) | 1.51 µM (inactive) | 0.0374 µM (active) | 0.661 µM (active) |
| c1ccc(C2C3=C(Nc4ncnn42)c2ccccc2C3)cc1 (stereo not given) | 34.5 µM (inactive) | 25.4 µM (inactive) | 8.15 µM (inactive) | 21.8 µM (inactive) | 11 µM (inactive) | 11.4 µM (inactive) | 12 µM (inactive) | 13.2 µM (inactive) | 42.3 µM (inactive) | 10.9 µM (inactive) | – | 48.2 µM (inactive) | 82.6 µM (inactive) | 4.93 µM (inactive) | 15.5 µM (inactive) | 95.9 µM (inactive) | 11.6 µM (inactive) | 29.5 µM (inactive) | 20 µM (inactive) |
| Cc1ccc(NC(=O)C(=O)C2C(=O)NC(=O)NC2=O)cc1C | > 100 µM (inactive) | > 100 µM (inactive) | > 100 µM (inactive) | > 100 µM (inactive) | > 100 µM (inactive) | > 100 µM (inactive) | > 100 µM (inactive) | > 100 µM (inactive) | > 100 µM (inactive) | > 100 µM (inactive) | > 100 µM (inactive) | > 100 µM (inactive) | > 100 µM (inactive) | > 100 µM (inactive) | > 100 µM (inactive) | > 100 µM (inactive) | > 100 µM (inactive) | > 100 µM (inactive) | > 100 µM (inactive) |
| Nc1c(-c2nc3ccccc3s2)[n+]([O-])c2ccccc2[n+]1[O-] | 36.4 µM (inactive) | 32.1 µM (inactive) | 38.1 µM (inactive) | 23.1 µM (inactive) | 37.1 µM (inactive) | 29.9 µM (inactive) | 24.3 µM (inactive) | 37 µM (inactive) | 25.8 µM (inactive) | 17 µM (inactive) | 25.2 µM (inactive) | 21.8 µM (inactive) | 24.6 µM (inactive) | 43.5 µM (inactive) | 42.6 µM (inactive) | 42.1 µM (inactive) | 29.1 µM (inactive) | 25.8 µM (inactive) | 26.9 µM (inactive) |
